# Laboratory results published in patent US11266086B2, “Efficient plant transformation method” (Wisconsin Alumni Research Foundation, priority 2018, dated 2022).
# Legend:
# Type in all cases: in vivo
# [1] = system: soybean VAEs; test: Particle bombardment of soybean VAEs with Dicot Bomb 9 and glyphosate selection; conditions: for TF / Rooting Shoots: BOMB 9, glyphosate selection
# Method: For particle bombardment experiments, gold-DNA “bead prep” was prepared by first washing 50 mg 0.6 um gold microcarriers (BioRad part #1652262) in 1 ml 100% ethanol and sonicating for 1 min 45 kHz. Gold was pelleted by centrifugation at 5000 rpm in microfuge (˜2300×g) and ethanol removed. Gold was then re-suspended in 1 ml 100% ethanol and stored at −20 C until use. To precipitate DNA onto beads, the 50 mg gold/1 ml ethanol stock was sonicated for 1 min 45 kHz. 42 ul of this stock was transferred to an Eppendorf tube, then pelleted by centrifugation at 2500 rpm for 10 seconds, after which ethanol was removed. 500 uL sterile water was added and mixture sonicated 1 min 45 kHz. Gold was again pelleted by centrifugation at 2500 rpm for 10 seconds and water removed. 25 ul sterile water was then added, followed by sonication for 1 min 45 kHz. 2.6, 1.3, or 0.65 ug VS225 DNA was added, then sterile water to bring volume up to 245 ul. 250 ul cold 2.5 M CaCl2 was added, followed by 50 ul 0.1 M spermidine. Solution was mixed by low speed vortexing. Tube was incubated on ice for approximately 1 hour with gentle inversions every 5-10 minutes. DNA/gold was pelleted at 1000 rpm (˜100×g) for 2 min and supernatant removed. Pellet was then washed with 1 ml 100% EtOH w/pipette tip, then pelleted again at 1000 rpm (˜100×g) for 2 min and supernatant removed 36 ul 100% EtOH was added to tube and gold completely re-suspended with low-speed vortexing. Bead prep was stored at −20 C until used, with 5 ul used per bombardment. This corresponds to 360, 180, or 90 ng DNA per blast; 290 ug gold per blast (1.2, 0.6, or 0.3 ng DNA per ug gold).
# For blasting Soybean VAEs, meristem explants were incubated in 20% PEG4000 with 60 mg/L Captan and 30 mg/L Bravo for 1 hour, rinsed thoroughly, and pre-cultured overnight on WCIC EJW1 media at 28 C 16/8 photoperiod.
# After preculture, Soybean VAEs were targeted on a 12% xantham gum holding media, 20 per plate, with meristems oriented upward. Prior to particle bombardment on the PDS-1000 helium gun, stop screens (BioRad part 1652336), 1350 psi rupture disks (BioRad 1652330), and macrocarrier holders (BioRad part 1652322) were sanitized for 1 min in 70% EtOH. Carrier sheets (BioRad part 1652335) were sanitized for 1 min in isopropanol. 1350 psi rupture disk was placed into the rupture disk retaining cap and screwed into the gas acceleration chamber. Stop screen was placed in the brass adjustable nest. 5 uL bead prep was deposited on the center of each carrier sheet loaded onto the macrocarrier holder and allowed to air dry. Macrocarrier holder was then turned over to place above retaining screen on brass nest. Macrocarrier cover lid was screwed on and completed macrocarrier launch assembly was placed on shelf directly under rupture disk. Gap distance between rupture disk and launch assembly was approximately 1 cm. Lid from target plate was removed and plate was placed on shelf 2 (2nd shelf from macrocarrier launch assembly) which is approximately 6 cm from assembly. Helium tank, PDS-1000, and vacuum were all turned on. Door was closed and vacuum applied to ˜27-28 In Hg. Fire button was depressed and held down until blast was complete. Vacuum was then released and target plate removed.
# After blasting, soybean VAEs were detargeted onto WCIC EJW1 media and allowed to rest overnight at 28 C 16/8 photoperiod. Explants were then placed on WCIC Spectinomycin Selection Medium and placed in 28 C 16/8 photoperiod.
# Alternate selectable markers for soybean VAE transformation—We applied soybean VAE technology to glyphosate selection, and were able to recover T0 plants from particle bombardment using Dicot Bomb 9 (FIG. 29) and the Goosegrass EPSP; where the explants were selected on 75 uM glyphosate; then rooted on 25 uM glyphosate. […] Our glyphosate selection work focused on reducing this cytokinin load during the preculture/rest phase. The T0 rooted shoots tested positive for GUS and RFP (tdTomato).
# [2] = system: non-inoculated soybean VAEs; test: Spectinomycin selection titration on non-inoculated soybean VAEs; conditions: at 5 weeks
# From the text: We ran a titration of spectinomycin selection levels on non-inoculated soybean VAEs, and could see visible bleaching and suppression of shooting and rooting as low as 50 ppm at 5 weeks (FIG. 5).
# [3] = system: soybean VAEs; test: Agrobacterium-mediated transformation of soybean meristem explants / VAEs with TDZ in co-culture
# Method: Soybean seeds were surface sanitized in 20% Clorox (from concentrated Clorox with 8.25% sodium hypochlorite) for 5 minutes, rinsed 5× with sterile RO water, and then primed by allowing them to sit for 2 hrs at room temperature. Seeds were then imbibed in WCIC Bean Germination Media (BGM) overnight. Meristem explants were prepared the next day by removing seed coats and cotyledons from the seed using either a manual process or in a wet mill consisting of a series of rollers and spray nozzles. Meristem explants were then either dried under a variety of conditions, or used fresh. Drying of explants was performed in either a Laminar Flow Hood (LFH) with explants resting on a filter paper exposed to air, or in a BryAir seed dryer (model VFB-3-E-DXA) on filter paper. For internal moisture determination, 0.5-1 g of dried material was placed in a 103 C oven for 16-18 hours, contents allowed to cool, then re-weighed. For use in transformation, dried explants—designated as soy VAEs (value added explants) were incubated 1-2 hours at room temperature in 20% PEG4000 (dissolved in sterile distilled water) supplemented with 60 mg/L Captan fungicide and 30 mg/L Bravo (Daconil) fungicide. Explants were then rinsed 5-6× with sterile distilled water and inoculated with Agrobacterium. […] FIGS. 3A and 3B show VAEs (3A) as compared to explants directly from just dry seed (3B).
# Agrobacterium inoculum was prepared under laminar flow hood from overnight cultures derived from 20% glycerol stocks stored at −80 C. Glycerol stocks were allowed to thaw, and approximately 50 ul stock was added to 50 ml LB with 50 mg/L kanamycin (GV3101 strain); or 250 ul stock to 50 ml LB with 50 ppm kanamycin and 100 ppm carbenicillin (AGL1 strain). The VS225 binary construct with pVS1 origin of replication conferred resistance to kanamycin, and had aadA, gus, and cas9 genes on its T-DNA. The pWI-1000 binary construct with pVS1 origin of replication conferred resistance to kanamycin, and had aadA and gus on its T-DNA. The pWI-1000 dsRED binary construct with pVS1 origin of replication conferred resistance to kanamycin, and had aadA, gus, and rfp (dsRED) on its T-DNA. Cultures were grown overnight at 28° C. 200 RPM on orbital shaker (Innova 4400 incubator shaker). The next morning optical densities of cultures at 660 nm (OD660) were checked (Hach DR5000™ Spectrophotometer) under laminar flow and then centrifuged at 2619×g for 20 min (H6000A rotor on Sorvall® RC3B centrifuge). Pelleted bacteria was re-suspended in WCIC INO media under laminar flow, diluted to OD660 0.3-0.45, and incubated at room temperature 150 RPM until used (VWR orbital shaker). In some experiments acetosyringone was added to inoculum at 100 uM to help induce the vir operon.
# Meristem explants were inoculated under laminar flow in inverted PlantCon® (approximately 25 ml inoculum per PlantCon®) (MP Biomedicals, LLC Cat. 26-722-06) and sonicated for 20 s, 45+/−2 kHz (L&R Sonicator Quantrex 450) in a 0.1% Triton X-100 water bath (Triton X-100 from Sigma #9002-93-1). Inoculated explants were incubated with inoculum for additional 30 min at room temperature at 75 RPM. Excess inoculum was then removed, and explants co-cultured in PlantCons® with 2.5 ml WCIC INO media supplemented with 50 mg/L nystatin, 10 mg/L TBZ, and 95 uM lipoic acid at 23 C 16/8 photoperiod. In some experiments this co-culture media was further supplemented with 1 mg/L TDZ in attempt to multiply meristematic cells and possibly suppress apical dominance. In some experiments acetosyringone was added to inoculum and/or co-culture medium at 100 uM as an inducing agent for the virulence cascade in the vir operon.
# After co-culture (3-5 days) explants were transferred to 200 ppm spectinomycin WCIC B5 media. When using the GV3101 strain we supplemented this selection media with 200-400 mg/L carbenicillin to knock Agrobacterium overgrowth down. […]
compound,measurement,setting,value
O=C(O)CNCP(=O)(O)O [glyphosate],plant recovery with glyphosate selection,"[1]; preculture and resting media conditions of the spectinomycin protocol (EJW1 with TDZ), particle bombardment",yielded no plants
CN[C@@H]1[C@H](O)[C@H](NC)[C@H]2O[C@@]3(O)C(=O)C[C@@H](C)O[C@H]3O[C@@H]2[C@H]1O [spectinomycin],lowest spectinomycin level with visible bleaching and suppression of shooting and rooting,[2],50 ppm
"O=C(Nc1ccccc1)Nc1cnns1 [TDZ, thidiazuron]",TF,"[1]; preculture EJW1 (1 ppm TDZ), rest EJW0 (no PGRs)",0.4%
same,Rooting Shoots,"[1]; preculture EJW1 (1 ppm TDZ), rest EJW0 (no PGRs), 264 initial explants",1
same,TF,[1]; preculture and rest EJW3 (0.5 ppm TDZ),0.5%
same,Rooting Shoots,"[1]; preculture and rest EJW3 (0.5 ppm TDZ), 387 initial explants",2
same,TF,"[3]; VAE batch S16b, 5 h dry in 20 C Bryair to 8.3% moisture, 3025N, TDZ in co-culture",0.6%
same,# T0 Plants,"[3]; VAE batch S16b, 5 h dry in 20 C Bryair to 8.3% moisture, 3025N, TDZ in co-culture, 162 explants",1
same,TF,"[3]; VAE batch S18, 6 h dry in 20 C Bryair to 27% moisture, LD10-30087, TDZ in co-culture",1.4%
same,# T0 Plants,"[3]; VAE batch S18, 6 h dry in 20 C Bryair to 27% moisture, LD10-30087, TDZ in co-culture, 74 explants",1
same,TF,"[3]; VAE batch S19, 6 h dry in 20 C Bryair to 21% moisture, LD10-30092, TDZ in co-culture",3.3%
same,# T0 Plants,"[3]; VAE batch S19, 6 h dry in 20 C Bryair to 21% moisture, LD10-30092, TDZ in co-culture, 91 explants",3
same,TF,"[3]; VAE batch S20, 6 h dry in 20 C Bryair to 18% moisture, LD10-30094, TDZ in co-culture",1.2%
same,# T0 Plants,"[3]; VAE batch S20, 6 h dry in 20 C Bryair to 18% moisture, LD10-30094, TDZ in co-culture, 85 explants",1
same,TF,"[3]; VAE batch S26, 6 h dry in 20 C Bryair, W82, TDZ in co-culture (Table 12)",4.4%
same,# T0 Plants,"[3]; VAE batch S26, 6 h dry in 20 C Bryair, W82, TDZ in co-culture, 182 explants (Table 12)",8
same,TF,"[3]; VAE batch S27, 5 h dry in 20 C Bryair, 3849N, TDZ in co-culture",2.1%
same,# T0 Plants,"[3]; VAE batch S27, 5 h dry in 20 C Bryair, 3849N, TDZ in co-culture, 289 explants",6
same,TF,"[3]; W82 VAEs, 20 C Bryair 5.5 h, 1 ppm TDZ in co-culture, second set of replicates",3.2%
same,# T0 Plants,"[3]; W82 VAEs, 20 C Bryair 5.5 h, 1 ppm TDZ in co-culture, second set of replicates, 126 explants",4
same,TF,"[3]; W82 VAEs, 20 C Bryair 6 h, 1 ppm TDZ in co-culture, first set of replicates (Table 13b)",5.5%
same,# T0 Plants,"[3]; W82 VAEs, 20 C Bryair 6 h, 1 ppm TDZ in co-culture, first set of replicates (Table 13b), 182 explants",10
same,TF,"[3]; W82 VAEs, LFH 20.5 h, 1 ppm TDZ in co-culture, second set of replicates",2.1%
same,# T0 Plants,"[3]; W82 VAEs, LFH 20.5 h, 1 ppm TDZ in co-culture, second set of replicates, 144 explants",3
same,TF,"[3]; W82 VAEs, various drying conditions, 1 ppm TDZ in co-culture, summary of replicates",3.8%
same,# R0 Plants,"[3]; W82 VAEs, various drying conditions, 1 ppm TDZ in co-culture, summary of replicates, 452 explants",17
same,TF,"[3]; freshly excised Williams82, fresh sample of explants dried to generate S17 series, TDZ 1 mg/L in co-culture",12.6%
same,# T0 Plants,"[3]; freshly excised Williams82, fresh sample of explants dried to generate S17 series, TDZ 1 mg/L in co-culture, 95 explants",12
same,effect of TDZ in co-culture on transformation,"[3]; freshly excised soy meristem explants (S17 series), TDZ 1 mg/L in co-culture",apparent benefit
"c1ccc(CNc2ncnc3nc[nH]c23)cc1 [BAP, 6-benzylaminopurine]",TF,[1]; preculture and rest OR (3 ppm BAP),0.3%
same,Rooting Shoots,"[1]; preculture and rest OR (3 ppm BAP), 380 initial explants",1
